The structures appear in SMILES notation. Non-standard residues stand in square brackets, D forms with d. Residues, ends and D or L forms follow the SMILES beside them. *: point of attachment. Sta = CC(C)C[C@H](N)[C@@H](O)CC(=O)O; Isovaleryl = CC(C)CC(=O)*

Data on three compounds can be found in patent US6780622B2, “Diterpene cyclase and methods of use” (Florida Atlantic University, priority 2002, dated 2004).

This test can be described thus: Cyclization of 3H-GGPP by purified elisabethatriene cyclase-containing chromatography fractions. Format: biochemical, Pseudopterogorgia elisabethae. The conditions noted are these: judged by the formation of pseudopterosins. The procedure: An example of a method for cyclizing GGPP to elisabethatriene includes the steps of providing purified elisabethatriene cyclase and contacting the GGPP substrate with the purified elisabethatriene cyclase under reaction conditions that result in the production of elisabethatriene. Any suitable reaction conditions that result in the production of elisabethatriene may be used. For example, ^3H-GGPP (1 μCi) is incubated with a suitable amount of purified elisabethatriene cyclase at 27° C. for 1-4 hours.
To purify enzymatically active elisabethatriene cyclase, CFE samples were subjected to DEAE ion-exchange chromatography, phenyl sepharose chromatography, hydroxyapatite chromatography, and UNO™ [2-Propen-1-aminium, N,N,-dimethyl-N-2-propenyl-, chloride, polymer with 1,4-bis(1-oxo-2-propenyl)piperazine and 2-methyl-2-propenamide] ion exchange chromatography (Bio-Rad Laboratories, Hercules, Calif.). Active fractions were obtained in all cases. Fractions resulting from these purification techniques were concentrated by ultracentrifugation, and then 0.5-100 μg (brought up to a total volume of 500 μl) was assayed for enzymatic activity by incubation with 1 μCi [1]^3H-GGPP for 1 hour in 20 mM Tris buffer (pH 7.7, 3 mM EDTA, 5 mM β-mercaptoethanol, 5 mM MgCl2). Samples were quenched, extracted with 500 μl hexanes and partially purified by passing through a small silica gel pasteur pipette column. Elisabethatriene was then added as “cold carrier” and incubations were purified by high-performance liquid chromatography (HPLC). […] Radioactivity in HPLC fractions was quantified by scintillation counting.
Using elisabethatriene cyclase purified by column chromatography as described in Example 1, GGPP was cyclized to elisabethatriene. To carry out the reaction, incubations were performed by incubating ^3H-GGPP(1 μCi) with purified elisabethatriene cyclase-containing fractions from chromatography columns at 27° C. for 1-4 hours.
As to `CC(C)C[C@H](NC(=O)[C@@H](NC(=O)N[C@@H](Cc1ccccc1)C(=O)O)[C@@H]1CCN=C(N)N1)C(=O)N[C@H](C=O)Cc1ccccc1` [chymostatin], the “effect of adding protease inhibitors on enzymatic activity of the fractions” value is listed as “did not increase the enzymatic activity”. Consider `CC(=O)N[C@@H](CC(C)C)C(=O)N[C@@H](CC(C)C)C(=O)N[C@H](C=O)CCCNC(=N)N` [leupeptin], for which the “effect of adding protease inhibitors on enzymatic activity of the fractions” value is “did not increase the enzymatic activity”. With `CC(C)CC(=O)N[C@H](C(=O)N[C@H](C(=O)N[C@@H](CC(C)C)[C@@H](O)CC(=O)N[C@@H](C)C(=O)N[C@@H](CC(C)C)[C@@H](O)CC(=O)O)C(C)C)C(C)C` [pepstatin] (Isovaleryl-VV[Sta]A[Sta]-OH) the entry was “did not increase the enzymatic activity”.
